Here are results for 15 compounds from ChEMBL document CHEMBL5608250, “Quinolinonyl Derivatives as Dual Inhibitors of the HIV-1 Integrase Catalytic Site and Integrase-RNA interactions” (ACS Med Chem Lett, 2024).

What is called pIC50 is the negative decadic logarithm of the IC50, by convention in mol/L. In general, pEC50 refers to −log10 of the EC50, conventionally taken in molar units. The inhibition is the relative decrease from the control value, in per cent.

Experiment [1] concerns the target T1, Human immunodeficiency virus type 1 integrase (Human immunodeficiency virus 1, UniProt Q7ZJM1). The experiment can be described thus: Inhibition of HIV-1 integrase catalytic activity incubated for 1 hrs in absence of LEDGF/p75 by HTRF assay.
Experiment [2] concerns the target T1, Human immunodeficiency virus type 1 integrase. The experiment can be described thus: (§1) Inhibition of HIV1 integrase activity by measuring multimerization of His-tagged integrase/FLAG-tagged integrase incubated for 3 hrs by […] HTRF assay.
Experiment [3] can be described thus: Inhibition of His-tagged HIV-1 integrase/FLAG-tagged LEDGF (unknown origin) protein-protein interaction preincubated with integrase for 30 mins followed by LEDGF/p75 addition and measured after overnight incubation by HTRF assay.
The test system of experiment [4] is Human immunodeficiency virus 1. The experiment can be described thus: (§2) Inhibition of 6His-tagged recombinant HIV-1 integrase/biotinylated HIV-1 transactivation response element RNA interaction assessed as […] preincubated with integrase for 2 hrs followed by RNA addition and measured after 1 hrs by ALPHAscreen based AlphaLISA. As to conditions: time 3.0 hrs.

In experiment [5] the target is Human immunodeficiency virus type 1 integrase (Human immunodeficiency virus 1) (UniProt Q7ZJM1). The experiment is described as §1.
The nature of experiment [6]: as §2. The arrangement: species or system Human immunodeficiency virus 1.
The test system of experiment [7] is Human immunodeficiency virus 1. Put plainly: Antiviral activity against VSV-G pseudotyped HIV-1 NL4.3 (isolated from HEK293T cells viral stock supernatant) infected in human MT4 cells assessed as inhibition of early stage viral replication preincubated for 3 to 4 hrs in presence of polybrene followed by fresh media replacement with compound and measured after 48 hrs by flow cytometric analysis. Format: functional, organism-based. As to conditions: Human immunodeficiency virus 1, NL4.3, MT4. For orientation: Flow cytometry measures light scatter and fluorescence of single cells or particles in a stream.

The test system of experiment [8] is Human immunodeficiency virus 1. Put plainly: Antiviral activity against VSV-G pseudotyped HIV-1 NL4.3 (isolated from compound pretreated HEK293T cells viral stock supernatant) infected in human MT4 cells assessed as inhibition of late stage viral replication preincubated for 3 to 4 hrs in presence of polybrene followed by fresh media replacement with compound and measured after 48 hrs by flow cytometric analysis. Format: functional, organism-based. As to conditions: time 51-52 hrs.

Experiment [9] deals with Human immunodeficiency virus 1. Put plainly: Antiviral activity against VSV-G pseudotyped HIV-1 NL4.3 (isolated from HEK293T cells viral stock supernatant) infected in human MT4 cells assessed as inhibition of early stage viral replication preincubated for 3 to 4 hrs in presence of polybrene followed by fresh media replacement with compound and measured after 48 hrs by flow cytometric analysis relative to control. Format: functional. As to conditions: time 51-52 hrs.

Experiment [10] deals with Human immunodeficiency virus 1. Put plainly: Antiviral activity against VSV-G pseudotyped HIV-1 NL4.3 (isolated from compound pretreated HEK293T cells viral stock supernatant) infected in human MT4 cells assessed as inhibition of late stage viral replication at 25 microM preincubated for 3 to 4 hrs in presence of polybrene followed by fresh media replacement with compound and measured after 48 hrs by flow cytometric analysis relative to …. Format: functional. As to conditions: Human immunodeficiency virus 1, NL4.3, MT4, time 51-52 hrs.

pEC50, pIC50: −log10 of the molar value. Calls of active or inactive are those of the source. No cut-off for these calls is given here.

T1 sequence (Q7ZJM1 whole entry): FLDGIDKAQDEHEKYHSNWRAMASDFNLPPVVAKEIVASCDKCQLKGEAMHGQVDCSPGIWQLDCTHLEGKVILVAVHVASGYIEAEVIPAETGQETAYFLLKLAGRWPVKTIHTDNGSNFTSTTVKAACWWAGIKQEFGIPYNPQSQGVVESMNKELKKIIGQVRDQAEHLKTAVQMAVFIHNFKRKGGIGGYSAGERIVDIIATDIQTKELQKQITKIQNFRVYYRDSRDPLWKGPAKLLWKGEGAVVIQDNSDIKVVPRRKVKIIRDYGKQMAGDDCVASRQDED
Human immunodeficiency virus type 1 integrase (Human immunodeficiency virus 1), sequence (Q7ZJM1 as listed by the source): as the sequence (Q7ZJM1 whole entry) above

Regarding `CCOC(=O)c1cn(Cc2ccc(F)cc2)c2ccc(OCc3cccc4ccccc34)cc2c1=O`, the negative-log IC50 (pIC50) in [1] was 4.38. Further, the negative-log EC50 (pEC50) in [2] was below 3.70. Also, the inhibition entry in experiment [3] was “inactive”. For the same compound, the inhibition entry in experiment [4] is “Active”.
As to `CCOC(=O)/C(O)=C/C(=O)c1cc2c(=O)c(C(=O)/C=C(\O)C(=O)OCC)cn(Cc3ccc(F)cc3)c2cc1N1CCN(C)CC1`, the pIC50 was 6.11 in experiment [1] and 5.38 in experiment [6]. The inhibition result in experiment [5] was “Active”. The inhibition entry in experiment [3] is “inactive”.
`CCOC(=O)/C(O)=C/C(=O)c1cn(Cc2ccc(F)cc2)c2ccc(C(=O)c3ccc(C(=O)OCC)cc3)cc2c1=O` gave a pIC50 in [1] of 6.13. Also, the inhibition result in [5] and in experiment [4] was “Active” each time. Besides, in [3], the inhibition result is “inactive”.
Compound `O=C(O)c1cn(Cc2ccc(F)cc2)c2ccc(Oc3ccccc3)cc2c1=O` had a negative-log IC50 (pIC50) in [1] below 3.70. Moreover, the inhibition entry in experiment [5] and in experiment [4] was “Active” each time. Besides, the inhibition entry in experiment [3] is “inactive”.
In the case of `O=C(O)/C(O)=C/C(=O)c1cn(Cc2ccc(F)cc2)c2ccc(C(=O)c3ccc(C(=O)O)cc3)cc2c1=O`, the figures for the pIC50 in experiment [1] and in experiment [6] were 7.11 and 5.80, respectively. For the same compound, in [5], the inhibition entry is “Active”. Further, the inhibition result in experiment [3] was “inactive”.
On to `CN(C)c1cc2c(cc1C(=O)/C=C(\O)C(=O)O)c(=O)c(C(=O)/C=C(\O)C(=O)O)cn2Cc1ccc(F)cc1`, for which the results for the pIC50 in experiment [1] and in [6] were 6.74 and 6.12, respectively. Moreover, the inhibition result in experiment [5] was “Active”. Moreover, the inhibition entry in experiment [3] is “inactive”. For the same compound, the negative-log EC50 (pEC50) in experiment [7] was below 5.20. Besides, the outcome in experiment [8] was inactive. Also, in experiment [9], the “inhibition (INH)” value was 38%.
With `O=C(O)c1cn(Cc2ccc(F)cc2)c2ccc(OCc3ccc(OCc4ccccc4)cc3)cc2c1=O`, the pIC50 in experiment [1] is 5.20. In experiment [2], this compound showed a pEC50 below 5.70. In addition, in experiment [3], the inhibition entry was “inactive”. Besides, the inhibition result in experiment [4] was “Active”.
`O=C(O)c1cn(Cc2ccc(F)cc2)c2ccc(OCc3ccc(F)cc3)cc2c1=O` showed a pIC50 in experiment [1] below 3.70. Moreover, the inhibition entry in [5] and in experiment [3] was “inactive” each time. Also, in [4], the inhibition entry is “Active”.
In experiment [1], `O=C(O)c1cn(Cc2ccc(F)cc2)c2ccc(OCc3cccc4ccccc34)cc2c1=O` gave a negative logarithm of the IC50 (pIC50) of 4.44. In experiment [2], this compound had a negative-log EC50 (pEC50) below 3.70. Besides, in experiment [3], the inhibition result was “inactive”. The inhibition result in experiment [4] is “Active”.
For the compound `O=C(O)/C(O)=C/C(=O)c1ccc2[nH]cc(C(=O)/C=C(\O)C(=O)O)c(=O)c2c1`, the pIC50 in experiment [1] was 5.50; in [6] it was 5.88. Moreover, the inhibition entry in experiment [5] and in experiment [3] was “Active” throughout.
For the compound `CCOC(=O)/C(O)=C/C(=O)c1ccc2[nH]cc(C(=O)/C=C(\O)C(=O)OCC)c(=O)c2c1`, the negative logarithm of the IC50 (pIC50) in experiment [1] is 5.63; in experiment [6] it was 5.65. Also, the inhibition entry in experiment [5] and in experiment [3] was “Active” each time.
With `CCOC(=O)/C(O)=C/C(=O)c1cc2c(=O)c(C(=O)/C=C(\O)C(=O)OCC)cn(Cc3ccc(F)cc3)c2cc1N(C)C`, the figures for the pIC50 in [1] and in experiment [6] were 6.32 and 5.98, respectively. For the same compound, the pEC50 was below 3.70 in [2] and below 5.20 in experiment [7]. Besides, in experiment [3], the inhibition result is “inactive”. The outcome in [8] was inactive. Also, the “inhibition (INH)” value in experiment [9] came to 50%.
In the case of `O=C(O)/C(O)=C/C(=O)c1ccc2c(c1)c(=O)c(C(=O)/C=C(\O)C(=O)O)cn2Cc1ccc(F)cc1`, the inhibition entry in [5] and in experiment [3] was “Active” throughout. In addition, the pIC50 in experiment [6] was 6.08. For the same compound, the negative-log EC50 (pEC50) in experiment [7] is 5.64. In experiment [10], the inhibition at 25 µM is 40%.
On to `CCOC(=O)/C(O)=C/C(=O)c1ccc2c(c1)c(=O)c(C(=O)/C=C(\O)C(=O)OCC)cn2Cc1ccc(F)cc1`, for which the pIC50 in experiment [1] is 6.10; in experiment [6], 5.70. Further, the inhibition entry in experiment [5] is “Active”. Further, in [3], the inhibition entry is “inactive”.
The compound `CCOC(=O)c1cn(Cc2ccc(F)cc2)c2ccc(OCc3ccc(OCc4ccccc4)cc3)cc2c1=O` gave a negative-log IC50 (pIC50) in [1] below 3.70. Also, the inhibition entry in experiment [5] and in experiment [4] was “Active” each time. In [3], the inhibition entry was “inactive”.
